The source of these data is US20240091138A1, “TOPICAL C[…]” (EGIS GYÓGYSZERGYÁR ZRT., priority 2021, published 2024).

Molecules are shown by their SMILES.

One series relates to Wistar rats. Put plainly: Chronic constriction injury (CCI) rat model of neuropathy, paw withdrawal threshold with electronic von Frey. In kind it is in vivo. Particulars: 16.66 mg/kg. The text has this:
Furthermore, based on the article Bennett G J, at al (Pain, A peripheral mononeuropathy in rat that produces disorders of pain sensation like those seen in man. 1988 April; 33(1):87-107) we have developed a method for the examination of the compositions of the present invention. Thus, we have examined the compositions according to the present invention also with a different model for measuring the alleviation of the peripheral neuropathic pain also. Namely, we have carried out examinations on rats using Chronic constriction injury (CCI) model. Three weeks following nerve injury rats were assessed for hind paw mechanical withdrawal thresholds. The paw withdrawal threshold (PWT) was determined with an Electronic von Frey device according to the modified up-down method of Dixon (Efficient analysis of experimental observations, Annu Rev Pharmacol Toxicol. 1980; 20:441-62). […] The method and results are shown in example 3 and on FIG. 9.
Thus, the compositions of the present invention are effective in the treatment of neuropathic pain. […]
Briefly, under isoflurane anesthesia small blunt dissection was made into the skin of rat right thigh then three loosely constrictive ligatures were placed around common sciatic nerve (chronic constriction injury CCI). Three weeks following nerve injury rats were assessed for hind paw mechanical withdrawal thresholds. […]

A short description of another series: Solubility of pregabalin. The following applies: in any solvents.
A short description of series [1]: Pharmacokinetic studies (blood levels of pregabalin). The following applies: during topical treatment.

Take `CC(C)C[C@H](CN)CC(=O)O` [pregabalin]: the “reduction of hypersensitivity after oral administration” value in the series with Wistar rats is “not able to reduce hypersensitivity”. In addition, in the series “Solubility of pregabalin”, the Solubility entry is recorded as “poor”. Also, the “amount of pregabalin entering the bloodstream” value in series [1] is recorded as “very small amounts”.
